Patent US9227971B2, “Pyrazolo[1,5-a]pyrimidine compounds as mTOR inhibitors” (Merck Sharp & Dohme Corp., priority 2010, dated 2016)

How the values were obtained:
[1] = test system: phosphorylated 4E-BP1 Thr37/46 (p4E-BP1 Thr37/46), mTORC1 activity, PC3 cells; assay: mTOR target engagement assay, immunofluorescent cell-based, p4E-BP1 Thr37/46 readout (mTORC1 activity); details: Homo sapiens, PC-3, PC3 cells, compound treatment ninety minutes at 37° C.; read-out: p4E-BP1 Thr37/46 IC50
Summary of the method: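 Read-out is fluorescence intensity of immunostained p4E-BP1 Thr37/46 in fixed PC3 cells, fitted to a logistic curve for IC50 with DMSO-only wells as top. Cells had been exposed to serial compound dilutions for ninety minutes at 37° C in 5% FBS medium with 0.25% DMSO.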

[2] = test system: phosphorylated AKT Ser473 (pAKT S473), mTORC2 activity, PC3 cells; assay: mTOR target engagement assay, immunofluorescent cell-based, pAKT S473 readout (mTORC2 activity); details: Homo sapiens, PC-3, PC3 cells, compound treatment ninety minutes at 37° C.
Summary of the method: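 After blocking, cells were stained overnight at 4 °C with anti-pAKT S473 antibody, then a fluorescent secondary; inhibition was read as reduced fluorescence intensity.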

## CC(=O)c1c([C@@H]2C[C@H]3CC[C@@H](C2)N3C(N)=O)nc2c(-c3ccc(-c4cnn(C)c4)nc3)cnn2c1N [Compound 1.1.175, (1R,3s,5S)-3-(6-acetyl-7-amino-3-(6-(1-methyl-1H-pyrazolo-4-yl)pyridin-3-yl)pyrazolo[1,5-a]pyrimidin-5-yl)-8-azabicyclo[3.2.1]octane-8-carboxamide]
[1]
  IC50: 0.1 to 1 µM
[2]
  IC50: 0.001 to 0.1 µM

## CC(=O)c1c([C@@H]2C[C@H]3CC[C@@H](C2)N3C(=O)c2cc(N)n[nH]2)nc2c(-c3ccc(-c4cnn(C)c4)nc3)cnn2c1N [Compound 1.1.176, 1-(7-amino-5-((1R,3s,5S)-8-(3-amino-1H-pyrazole-5-carbonyl)-8-azabicyclo[3.2.1]octan-3-yl)-3-(6-(1-methyl-1H-pyrazol-4-yl)pyridin-3-yl)pyrazolo[1,5-a]pyrimidin-6-yl)ethanone]
[1]
  IC50: 0.1 to 1 µM
[2]
  IC50: 0.1 to 1 µM

## CC(=O)c1c([C@@H]2C[C@H]3CC[C@@H](C2)N3C(=O)c2nnc[nH]2)nc2c(-c3ccc(-n4cccn4)nc3)cnn2c1N [Compound 1.1.177, 1-(3-(6-(1H-pyrazol-1-yl)pyridin-3-yl)-5-((1R,3s,5S)-8-(4H-1,2,4-triazole-3-carbonyl)-8-azabicyclo[3.2.1]octan-3-yl)-7-aminopyrazolo[1,5-a]pyrimidin-6-yl)ethanone]
[1]
  IC50: 0.001 to 0.1 µM
[2]
  IC50: 0.001 to 0.1 µM

## CC(=O)c1c([C@@H]2C[C@H]3CC[C@@H](C2)N3C(=O)CO)nc2c(-c3ccc(-n4cccn4)nc3)cnn2c1N [Compound 1.1.178, 1-((1R,3s,5S)-3-(3-(6-(1H-pyrazol-1-yl)pyridin-3-yl)-6-acetyl-7-aminopyrazolo[1,5-a]pyrimidin-5-yl)-8-azabicyclo[3.2.1]octan-8-yl)-2-hydroxyethanone]
[1]
  IC50: 0.1 to 1 µM
[2]
  IC50: 0.001 to 0.1 µM

## CC(=O)c1c([C@@H]2C[C@H]3CC[C@@H](C2)N3C(=O)c2nnc[nH]2)nc2c(-c3cnc(-c4ccccc4)nc3)cnn2c1N [Compound 1.1.179, 1-(5-((1R,3s,5S)-8-(4H-1,2,4-triazole-3-carbonyl)-8-azabicyclo[3.2.1]octan-3-yl)-7-amino-3-(2-phenylpyrimidin-5-yl)pyrazolo[1,5-a]pyrimidin-6-yl)ethanone]
[1]
  IC50: 0.001 to 0.1 µM
[2]
  IC50: 0.001 to 0.1 µM

## CC(=O)c1c([C@@H]2C[C@H]3CC[C@@H](C2)N3C(=O)c2nnc[nH]2)nc2c(-c3cnc(C(C)(C)O)nc3)cnn2c1N [Compound 1.1.180, 1-(5-((1R,3s,5S)-8-(4H-1,2,4-triazole-3-carbonyl)-8-azabicyclo[3.2.1]octan-3-yl)-7-amino-3-(2-(2-hydroxypropan-2-yl)pyrimidin-5-yl)pyrazolo[1,5-a]pyrimidin-6-yl)ethanone]
[1]
  IC50: 0.1 to 1 µM
[2]
  IC50: 0.1 to 1 µM

## CC(=O)c1c([C@@H]2C[C@H]3CC[C@@H](C2)N3C(=O)c2nnc[nH]2)nc2c(-c3cnc(C(C)(C)O)c(Cl)c3)cnn2c1N [Compound 1.1.181, 1-(5-((1R,3s,5S)-8-(4H-1,2,4-triazole-3-carbonyl)-8-azabicyclo[3.2.1]octan-3-yl)-7-amino-3-(5-chloro-6-(2-hydroxypropan-2-yl)pyridin-3-yl)pyrazolo[1,5-a]pyrimidin-6-yl)ethanone]
[1]
  IC50: 0.001 to 0.1 µM
[2]
  IC50: 0.001 to 0.1 µM

## COc1cc(F)cc2cc(-c3cnn4c(N)c(C(C)=O)c([C@@H]5C[C@H]6CC[C@@H](C5)N6C(=O)c5nnc[nH]5)nc34)cnc12 [Compound 1.1.182, 1-(5-((1R,3r,5S)-8-(4H-1,2,4-triazole-3-carbonyl)-8-azabicyclo[3.2.1]octan-3-yl)-7-amino-3-(6-fluoro-8-methoxyquinolin-3-yl)pyrazolo[1,5-a]pyrimidin-6-yl)ethanone]
[1]
  IC50: 0.001 to 0.1 µM
[2]
  IC50: 0.001 to 0.1 µM

## COc1cc(F)cc2cc(-c3cnn4c(N)c(C(C)=O)c([C@@H]5C[C@H]6CC[C@@H](C5)N6C(=O)CO)nc34)cnc12 [Compound 1.1.183, 1-((1R,3r,5S)-3-(6-acetyl-7-amino-3-(6-fluoro-8-methoxyquinolin-3-yl)pyrazolo[1,5-a]pyrimidin-5-yl)-8-azabicyclo[3.2.1]octan-8-yl)-2-hydroxyethanone]
[1]
  IC50: 0.1 to 1 µM
[2]
  IC50: 0.001 to 0.1 µM

## CC(=O)c1c([C@@H]2C[C@H]3CC[C@@H](C2)N3C(=O)c2nnc[nH]2)nc2c(-c3cncc(CO)c3)cnn2c1N [Compound 1.1.184, 1-(5-((1R,3s,5S)-8-(4H-1,2,4-triazole-3-carbonyl)-8-azabicyclo[3.2.1]octan-3-yl)-7-amino-3-(5-(hydroxymethyl)pyridin-3-yl)pyrazolo[1,5-a]pyrimidin-6-yl)ethanone]
[1]
  IC50: 0.1 to 1 µM
[2]
  IC50: 0.1 to 1 µM

## CC(=O)c1c([C@@H]2C[C@H]3CC[C@@H](C2)N3C(=O)CO)nc2c(-c3ccc(-c4n[nH]c(C)c4F)nc3)cnn2c1N [Compound 1.11..107, 1-((1R,3s,5S)-3-(6-acetyl-7-amino-3-(6-(4-fluoro-5-methyl-1H-pyrazol-3-yl)pyridin-3-yl)pyrazolo[1,5-a]pyrimidin-5-yl)-8-azabicyclo[3.2.1]octan-8-yl)-2-hydroxyethanone]
[1]
  IC50: 0.1 to 1 µM
[2]
  IC50: 0.1 to 1 µM

## CC(=O)c1c([C@@H]2C[C@H]3CC[C@@H](C2)N3C(N)=O)nc2c(-c3ccc(-c4ccc(F)cc4)nc3)cnn2c1N [Compound 1.11..170, (1R,3s,5S)-3-(6-acetyl-7-amino-3-(6-(4-fluorophenyl)pyridin-3-yl)pyrazolo[1,5-a]pyrimidin-5-yl)-8-azabicyclo[3.2.1]octane-8-carboxamide]
[1]
  IC50: 0.001 to 0.1 µM
[2]
  IC50: 0.001 to 0.1 µM

## Nc1c(Br)c([C@@H]2C[C@H]3CC[C@@H](C2)N3C(=O)c2nc[nH]n2)nc2c(-c3ccc(-c4ccccc4)nc3)cnn12 [Compound 2.1, ((1R,3s,5S)-3-(7-amino-6-bromo-3-(6-phenylpyridin-3-yl)pyrazolo[1,5-a]pyrimidin-5-yl)-8-azabicyclo[3.2.1]octan-8-yl)(1H-1,2,4-triazol-3-yl)methanone]
[1]
  IC50: 0.001 to 0.1 µM
[2]
  IC50: 0.1 to 1 µM

## COc1ccc(-c2ccc(-c3cnn4c(N)c(Br)c([C@@H]5C[C@H]6CC[C@@H](C5)N6C(=O)CO)nc34)cn2)cc1CO [Compound 2.2, 1-((1R,3s,5S)-3-(7-amino-6-bromo-3-(6-(3-(hydroxymethyl)-4-methoxyphenyl)pyridin-3-yl)pyrazolo[1,5-a]pyrimidin-5-yl)-8-azabicyclo[3.2.1]octan-8-yl)-2-hydroxyethanone]
[1]
  IC50: 0.1 to 1 µM
[2]
  IC50: 0.001 to 0.1 µM

## COc1ccc(-c2ccc(-c3cnn4c(N)c(Br)c([C@@H]5C[C@H]6CC[C@@H](C5)N6C(=O)[C@@H](C)O)nc34)cn2)cc1CO [Compound 2.3, (R)-1-((1R,3S,5S)-3-(7-amino-6-bromo-3-(6-(3-(hydroxymethyl)-4-methoxyphenyl)pyridin-3-yl)pyrazolo[1,5-a]pyrimidin-5-yl)-8-azabicyclo[3.2.1]octan-8-yl)-2-hydroxypropan-1-one]
[1]
  IC50: 0.001 to 0.1 µM
[2]
  IC50: 0.001 to 0.1 µM

## COc1ccc(-c2ccc(-c3cnn4c(N)c(Br)c([C@@H]5C[C@H]6CC[C@@H](C5)N6C(=O)c5nnc[nH]5)nc34)cn2)cc1F [Compound 2.4, ((1R,3s,5S)-3-(7-amino-6-bromo-3-(6-(3-fluoro-4-methoxyphenyl)pyridin-3-yl)pyrazolo[1,5-a]pyrimidin-5-yl)-8-azabicyclo[3.2.1]octan-8-yl)(4H-1,2,4-triazol-3-yl)methanone]
[1]
  IC50: 0.1 to 1 µM
[2]
  IC50: 0.1 to 1 µM
